US20030171276A1, “Preventives and remedies for chronic hepatitis” (priority 1999, published 2003)

System: recombinant E2 protein binding to CD81 expressed in Jurkat cells
Test: Inhibition of binding of recombinant E2 protein to Jurkat cells (FACScan)
Format: cell-based, HCV
Conditions: 1 μg recombinant E2 protein preincubated with 10 μL of 1 mg/mL solution, room temperature 1 hour; FIG. 14
Experimental: An oligopeptide capable of binding to HCV E2 antigen is reacted with the HCV E2 antigen to study whether or not binding of CD81 expressed in Jurkat cells purchased from DAINIPPON PHARMACEUTICAL CO., LTD. to the HCV E2 antigen is inhibited. By the study, whether or not the selected oligopeptide inhibits adhesion of the HCV E2 antigen to CD81-positive cells can be estimated. The inhibitory activity for adhesion of CD81 to the IICV E2 antigen was assayed in accordance with the literature. The concrete description will be given hereinbelow.
The Jurkat cells were prepared in the same manner as in item (1), and suspended in WB so as to have a concentration of 4×10^6 cells/mL, to give a Jurkat cell suspension. […]
Hereinafter, in the same manner as in the item (1) above, the resulting product was reacted with an FITC-labeled anti-mouse IgG1 antibody, and thereafter the reaction mixture was suspended in 0.2 mL of a 10% neutral buffered formalin solution. As to the resulting product, E2 protein bound to Jurkat cells was analyzed by using FACScan.
One microgram of the recombinant E2 protein, and 10 μL of the TAPA148, bLF or bLF443 solution obtained in item (4) above were added to a 6 mm rounded-bottom tube and, and WB was then added thereto, to give 50 μL of a mixture. […] As to the resulting suspension, E2 protein bound to Jurkat cells was analyzed by using FACScan.

| Substance | inhibitory action of binding of E2 protein to Jurkat cells |
| --- | --- |
| bLF443: Bovine lactoferrin-derived peptide, SEQ ID NO: 24 (LDCVLRPTEGYLAVAVVKKANEGLTWNSLKDKKSCH; Synthesized peptide bLF443 which is derived from bovine lactoferrin) | inhibitory action of binding of the E2 protein |
| TAPA148: Human CD81-derived peptide, SEQ ID NO: 23 (TFHETLDCCGSSTLTALTTSVLKNNLCPSGSNIISNLFKTDCHQKIDDLTSGK; Synthesized peptide TAPA148 which is derived from human CD81) | inhibitory action of binding of E2 protein |
